CCOC(=O)Cc1c(C(=O)OCC)sc(N(CC(=O)OCC)CC(=O)OCC)c1C#N
solubility (mole fraction)
Settings	in acetone	in acetonitrile	in cyclohexane	in ethanol	in ethyl acetate	in isopropanol	in methanol	in n-butanol	in n-propanol	in toluene
283.15 K	0.0364	0.0196	5.19e-05	0.000512	0.0224	0.000243	0.0012	0.000391	0.000617	0.0122
285.65 K	0.0394	0.0211	6.04e-05	0.000635	0.0259	0.000308	0.00149	0.000489	0.000762	0.014
288.15 K	0.043	0.0234	7.21e-05	0.00079	0.0296	0.000386	0.0018	0.000608	0.000953	0.0162
290.65 K	0.0456	0.0255	8.6e-05	0.000971	0.0339	0.000478	0.0022	0.000753	0.00118	0.0187
293.15 K	0.0498	0.028	0.000102	0.0012	0.0389	0.000592	0.00265	0.00094	0.00146	0.0216
295.65 K	0.0538	0.0303	0.00012	0.00148	0.0442	0.000736	0.00326	0.00115	0.0018	0.0249
298.15 K	0.0582	0.0334	0.000142	0.00178	0.0509	0.00091	0.00391	0.0014	0.00219	0.0286
300.65 K	0.0627	0.0365	0.00017	0.00216	0.0578	0.00111	0.00464	0.00173	0.00266	0.0328
303.15 K	0.0672	0.0396	0.000199	0.00264	0.066	0.00135	0.00556	0.00215	0.00327	0.0379
305.65 K	0.073	0.0433	0.000236	0.0032	0.0741	0.00162	0.00659	0.00259	0.00403	0.0434
308.15 K	0.079	0.0473	0.000279	0.0038	0.083	0.00197	0.00781	0.00316	0.00492	0.0498
310.65 K	0.0853	0.0515	0.000324	0.00457	0.0927	0.00236	0.00925	0.0039	0.006	0.0567
313.15 K	0.0921	0.0562	0.00038	0.00543	0.105	0.00286	0.0109	0.0047	0.00722	0.0647
315.65 K	0.0995	0.0612	0.000444	0.00645	0.118	0.00345	0.0128	0.00577	0.00868	0.0737
318.15 K	0.107	0.067	0.000516	0.00768	0.132	0.00413	0.015	0.00696	0.0104	0.0835
320.65 K	0.116	0.0734	0.000596	0.00904	0.146	0.00494	0.0174	0.00838	0.0126	0.0946
323.15 K	0.126	0.0805	0.0007	0.0107	0.163	0.00588	0.0198	0.0102	0.015	0.107
